Where “and” joins values, the source holds several entries; their conditions need not be identical. Identical values can stand only once. Like-named read-outs stand apart in the source and are kept apart here.
Experiments:
recombinant human LDHA = molecular target: T1, recombinant human LDHA (Homo sapiens, UniProt P00338); assay: hLDHA enzymatic activity assay (kinetic spectrofluorimetric, β-NADH fluorescence decrease); assay type: biochemical; conditions: for IC50: mean ± SD of n = 3 replicates; for Selectivity Rate (IC50 hLDHB/hLDHA): ratio IC50 hLDHB / IC50 hLDHA
T1 construct: purchased Abcam
Protocol: (§1) Briefly, the decrease in the coenzyme β-NADH fluorescence (λemission = 460 nm) was measured for 10 min, at different concentration of inhibitors, and its slope was compared with the one obtained when there were not inhibitors added (100% enzymatic activity).
The enzymatic assay was conducted on 96-well microplates and the decrease in the β-NADH fluorescence (λexcitation = 340 nm; λemission = 460 nm) was detected in a TECAN Infinite 200 Pro M Plex fluorescent plate reader (Tecan Instrument, Inc.) at 28 °C. The activity was determined according to our previously described protocol. The final volume in each well was set to 200 µL using 100 mM potassium phosphate buffer, 0.041 units/mL LDHA, 155 µM β-NADH, 1 mM pyruvate (saturated conditions), and DMSO solutions (5%, v/v) of pure compounds at concentrations in the range of 1–600 µM. The addition of pyruvate allowed the beginning of the reaction and fluorescence was registered every 60 s during 10 min. A lineal time interval was selected to calculate the slope at every single concentration. […] The slope obtained at each concentration was compared to the one obtained for the 100% enzymatic activity control to determine the corresponding enzymatic activity. A nonlinear regression analysis in GraphPad Prism version 9.00 for Windows (GraphPad Software, La Jolla, CA, USA) was used for dose response curve, fitting of logarithm of inhibitor concentration vs. normalized enzymatic activity, to calculate IC50 values (Supplementary Material section). All measurements were made in triplicate and data were expressed as the mean ± SD.

recombinant human LDHB = molecular target: T2, recombinant human LDHB (Homo sapiens, UniProt P07195); assay: hLDHB enzymatic activity assay (same fluorimetric protocol); assay type: biochemical; conditions: mean ± SD of n = 3 replicates; read-out: hLDHB IC50
T2 construct: purchased Abcam
Protocol: as §1
The ability of the synthesized compounds to inhibit the hLDHB enzyme was measured using recombinant human LDHB (95%, specific activity >300 units/mg and concentration of 1.0 mg/mL, Abcam, Cambridge, UK) following the same fluorimetric protocol described in Section 3.4.

[1] = 1 mM pyruvate, 155 µM β-NADH, pH 7.3, 28 °C, read-out: hLDHA IC50
[2] = supplementary dose response curves, µM only on the axis label, read-out: IC50 (hLDHA inhibition curve)

T2 sequence (P07195 whole entry): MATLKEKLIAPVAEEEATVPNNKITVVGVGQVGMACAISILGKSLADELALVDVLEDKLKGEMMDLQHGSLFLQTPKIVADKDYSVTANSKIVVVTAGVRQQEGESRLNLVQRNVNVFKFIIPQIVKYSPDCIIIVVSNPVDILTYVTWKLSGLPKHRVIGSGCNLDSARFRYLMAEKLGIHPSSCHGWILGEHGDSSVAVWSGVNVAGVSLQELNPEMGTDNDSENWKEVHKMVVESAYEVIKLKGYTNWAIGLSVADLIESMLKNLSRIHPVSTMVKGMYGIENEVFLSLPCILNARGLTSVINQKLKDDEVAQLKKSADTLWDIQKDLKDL

Row | melting point | IC50 (recombinant human LDHA; [1]) | Selectivity Rate (IC50 hLDHB/hLDHA) (recombinant human LDHA) | IC50 (recombinant human LDHA; [2]) [µM] | IC50 (recombinant human LDHB) [µM] | Selectivity Rate (IC50 hLDHB/hLDHA) (recombinant human LDHA; listed as 65a) | Selectivity Rate (IC50 hLDHB/hLDHA) (recombinant human LDHA; listed as 67a) | Compound | Selectivity Rate (IC50 hLDHB/hLDHA) (recombinant human LDHA; listed as 50)
1 | 247 to 250 °C | 27.4 ± 0.6 µM | 1.1 | 27.4 ± 0.6 |  |  |  | O=C1C2=C(C(=O)c3ccccc31)C1CC(c3ccc(O)c(O)c3)(O2)Oc2ccc([N+](=O)[O-])cc21 (racemic) [(±)-55, 2-(3′.4′-Dihydroxyphenyl)-6-nitrochromane-(4→3″, 2→O-2″)-2″-hydroxy-1″,4″-naphthoquinone] | 
2 | 300 to 302 °C (dec.) | 13.7 ± 0.6 µM | 8.7 | 13.7 ± 0.6 | 119 ± 2.7 |  |  | O=C1C2=C(C(=O)c3ccccc31)C1CC(c3ccc(O)c(O)c3)(O2)Oc2ccc(Cl)cc21 (racemic) [(±)-56, 2-(3′,4′-Dihydroxyphenyl)-6-chlorochromane-(4→3″, 2→O-2″)-2″-hydroxy-1″,4″-naphthoquinone] | 
3 | 148 to 150 °C |  |  |  |  |  |  | COc1ccc(C23CC(C4=C(O2)C(=O)c2ccccc2C4=O)c2cc([N+](=O)[O-])ccc2O3)cc1OC (racemic) [(±)-58, 2-(3′.4′-Dimethoxyphenyl)-6-nitrochromane-(4→3″, 2→O-2″)-2″-hydroxy-1″,4″-naphthoquinone] | 
4 | 124 to 127 °C |  |  |  |  |  |  | COc1ccc(C23CC(C4=C(O2)C(=O)c2ccccc2C4=O)c2cc(Cl)ccc2O3)cc1OC (racemic) [(±)-59, 2-(3′,4′-Dimethoxyphenyl)-6-chlorochromane-(4→3″, 2→O-2″)-2″-hydroxy-1″,4″-naphthoquinone] | 
5 | 270 to 273 °C (dec.) |  |  |  |  |  |  | O=C1C2=C(C(=O)c3ccccc31)C1CC(c3ccc(O)cc3)(O2)Oc2ccc([N+](=O)[O-])cc21 (racemic) [(±)-60, 2-(4′-Hydroxyphenyl)-6-nitrochromane-(4→3″, 2→O-2″)-2″-hydroxy-1″,4″-naphthoquinone] | 
6 | 249 to 251 °C |  |  |  |  |  |  | O=C1C2=C(C(=O)c3ccccc31)C1CC(c3ccc(O)cc3)(O2)Oc2ccc(Cl)cc21 (racemic) [(±)-61, 2-(4′-Hydroxyphenyl)-6-chlorochromane-(4→3″, 2→O-2″)-2″-hydroxy-1″,4″-naphthoquinone] | 
7 | 110 to 112 °C |  |  |  |  |  |  | COc1ccc(C23CC(C4=C(CC(c5ccc(Cl)cc5)OC4=O)O2)c2ccccc2O3)cc1OC (racemic) [(±)-63a, 2-(3′,4′-Dimethoxyphenyl)-chromane-(4→3″, 2→O-4″)-6″-(4‴-chlorophenyl)-4″-hydroxy-5″,6″-dihydro-2H-pyran-2″-one] | 
8 | 172 to 175 °C | 52.8 ± 5.3 µM | >5.7 | 52.8 ± 5.3 | > 300 |  |  | COc1ccc(C2CC3=C(C(=O)O2)C2CC(c4ccc(OC)c(OC)c4)(O3)Oc3ccccc32)cc1 (racemic) [(±)-64a, 2-(3′,4′-Dimethoxyphenyl)-chromane-(4→3″, 2→O-4″)-4″-hydroxy-6″-(4‴-methoxyphenyl)-5″,6″-dihydro-2H-pyran-2″-one] | 
9 | 198 to 200 °C | 12.5 ± 1.1 µM | 21.5 | 12.5 ± 1.1 | 269 ± 11 | > 10 |  | COc1ccc(C23CC(C4=C(CC(c5ccccc5)OC4=O)O2)c2cc([N+](=O)[O-])ccc2O3)cc1OC (racemic) [(±)-65a, 2-(3′,4′-Dimethoxyphenyl)-6-nitrochromane-(4→3″, 2→O-4″)-4″-hydroxy-6″-phenyl-5″,6″-dihydro-2H-pyran-2″-one] | 
10 | 194 to 196 °C | < 10 µM and 5.8 µM | 4.8 | 5.8 | 28.1 ± 0.4 |  |  | COc1ccc(C23CC(C4=C(CC(c5ccc(Cl)cc5)OC4=O)O2)c2cc([N+](=O)[O-])ccc2O3)cc1OC (racemic) [(±)-66a, 2-(3′,4′-Dimethoxyphenyl)-6-nitrochromane-(4→3″, 2→O-4″)-6″-(4‴-chlorophenyl)-4″-hydroxy-5″,6″-dihydro-2H-pyran-2″-one] | 
11 | 162 to 164 °C | 14.8 ± 0.6 µM | >20.3 | 14.8 ± 0.6 | > 300 |  | > 10 | COc1ccc(C2CC3=C(C(=O)O2)C2CC(c4ccc(OC)c(OC)c4)(O3)Oc3ccc([N+](=O)[O-])cc32)cc1 (racemic) [(±)-67a, 2-(3′,4′-Dimethoxyphenyl)-6-nitrochromane-(4→3″, 2→O-4″)-4″-hydroxy-6″-(4‴-methoxyphenyl)-5″,6″-dihydro-2H-pyran-2″-one] | 
12 | 106 to 108 °C |  |  |  |  |  |  | COc1ccc(C23CC(C4=C(CC(c5ccccc5)OC4=O)O2)c2cc(Cl)ccc2O3)cc1OC (racemic) [(±)-68a, 2-(3′,4′-Dimethoxyphenyl)-6-chlorochromane-(4→3″, 2→O-4″)-4″-hydroxy-6″-phenyl-5″,6″-dihydro-2H-pyran-2″-one] | 
13 | 172 to 175 °C | 20 ± 0.6 µM | 7.1 | 20 ± 0.6 | 141 ± 2.5 |  |  | COc1ccc(C23CC(C4=C(CC(c5ccc(Cl)cc5)OC4=O)O2)c2cc(Cl)ccc2O3)cc1OC (racemic) [(±)-69a, 2-(3′,4′-Dimethoxyphenyl)-6-chlorochromane-(4→3″, 2→O-4″)-6″-(4‴-chlorophenyl)-4″-hydroxy-5″,6″-dihydro-2H-pyran-2″-one] | 

Second part, the molecule before the results:

Row | Compound | melting point | IC50 (recombinant human LDHA; [1]) | Selectivity Rate (IC50 hLDHB/hLDHA) (recombinant human LDHA) | IC50 (recombinant human LDHA; [2]) [µM] | IC50 (recombinant human LDHB) [µM] | Selectivity Rate (IC50 hLDHB/hLDHA) (recombinant human LDHA; listed as 65a) | Selectivity Rate (IC50 hLDHB/hLDHA) (recombinant human LDHA; listed as 67a) | Selectivity Rate (IC50 hLDHB/hLDHA) (recombinant human LDHA; listed as 50)
14 | COc1ccc(C23CC(c4ccccc4O2)c2c(O)cc(O)cc2O3)cc1OC (racemic) [(±)-42, 2-(3′,4′-Dimethoxyphenyl)-chromane-(4→4″, 2→O-5″)-phloroglucinol] | 77 to 80 °C (dec.) | 154 ± 11.3 µM | 1.9 | 154 ± 11.3 | 293.1 ± 2.4 |  |  | 
15 | COc1ccc(C23CC(c4cc([N+](=O)[O-])ccc4O2)c2c(O)cc(O)cc2O3)cc1OC (racemic) [(±)-43, 2-(3′,4′-Dimethoxyphenyl)-6-nitrochromane-(4→4″, 2→O-5″)-phloroglucinol] | 193 to 195 °C | < 10 µM and 8.2 µM | 8.0 | 8.2 ± 0.2 | 65.3 ± 2.1 |  |  | 
16 | COc1ccc(C23CC(c4cc(Cl)ccc4O2)c2c(O)cc(O)cc2O3)cc1OC (racemic) [(±)-44, 2-(3′,4′-Dimethoxyphenyl)-6-chlorochromane-(4→4″, 2→O-5″)-phloroglucinol] | 257 to 259 °C |  |  |  |  |  |  | 
17 | O=c1oc2ccccc2c2c1C1CC(c3ccc(O)c(O)c3)(Oc3ccc([N+](=O)[O-])cc31)O2 (racemic) [(±)-46, 2-(3′,4′-Dihydroxyphenyl)-6-nitrochromane-(4→3″, 2→O-4″)-4″-hydroxycoumarin] | 128 to 130 °C (dec.) |  |  |  |  |  |  | 
18 | O=c1oc2ccccc2c2c1C1CC(c3ccc(O)c(O)c3)(Oc3ccc(Cl)cc31)O2 (racemic) [(±)-47, 2-(3′,4′-Dihydroxyphenyl)-6-chlorochromane-(4→3″, 2→O-4″)-4″-hydroxycoumarin] | 98 to 100 °C (dec.) | < 10 µM and 9.1 µM | 1.6 | 9.1 ± 0.5 | 14.3 ± 0.9 |  |  | 
19 | COc1ccc(C23CC(c4cc([N+](=O)[O-])ccc4O2)c2c(c4ccccc4oc2=O)O3)cc1OC (racemic) [(±)-49, 2-(3′,4′-Dimethoxyphenyl)-6-nitrochromane-(4→3″, 2→O-4″)-4″-hydroxycoumarin] | 142 to 144 °C | 25.7 ± 0.3 µM | 8.3 | 25.7 ± 0.3 | 212.3 ± 1.4 |  |  | 
20 | COc1ccc(C23CC(c4cc(Cl)ccc4O2)c2c(c4ccccc4oc2=O)O3)cc1OC (racemic) [(±)-50, 2-(3′,4′-Dimethoxyphenyl)-6-chlorochromane-(4→3″, 2→O-4″)-4″-hydroxycoumarin] | 130 to 133 °C | 13.2 ± 0.8 µM | >22.7 | 13.2 ± 0.8 | > 300 |  |  | > 10
21 | O=c1oc2ccccc2c2c1C1CC(c3ccc(O)cc3)(Oc3ccc([N+](=O)[O-])cc31)O2 (racemic) [(±)-52, 2-(4′-Hydroxyphenyl)-6-nitrochromane-(4→3″, 2→O-4″)-4″-hydroxycoumarin] | 275 to 278 °C | 36.9 ± 1.2 µM | 1.8 | 36.9 ± 1.2 |  |  |  | 
22 | O=c1oc2ccccc2c2c1C1CC(c3ccc(O)cc3)(Oc3ccc(Cl)cc31)O2 (racemic) [(±)-53, 2-(4′-Hydroxyphenyl)-6-chlorochromane-(4→3″, 2→O-4″)-4″-hydroxycoumarin] | 250 to 252 °C (dec.) |  |  |  |  |  |  | 
23 | O=C1C2=C(C(=O)c3ccccc31)C1CC(c3ccc(O)c(O)c3)(O2)Oc2ccccc21 (racemic) [(±)-54, 2-(3′,4′-Dihydroxyphenyl)-chromane-(4→3″, 2→O-2″)-2″-hydroxy-1″,4″-naphthoquinone] | 190 to 192 °C (dec.) |  |  |  |  |  |  | 
